We go through one substance from patent US11684646B2, “Methods and related compositions for reducing oxidative stress” (Gateway Health Alliances, Inc., priority 2019, dated 2023).

Holding throughout (type): in vivo
Data set [1] concerns Aluminum chloride induced neurotoxicity in Wistar rats. Description: Aluminum chloride treated rats: plasma transaminases ASAT (GOT) and ALAT (GPT), hepatic toxicity. The method, then:
(§1) [formula] I.3. Evaluation of Neuro-Protective Effects of the Hydro-Ethanolic Extract of B. toxisperma Against Aluminum Chloride Induced Neurotoxicity (Animal Model of Neurotoxicity)
(§2) Twenty albinos Wistar rats weighing between 230-250 g were used for this experiment in which the treatment lasted 3 days. The experimentation was conducted in the animal house of the Laboratory of Nutrition and Nutritional Biochemistry of the department of Biochemistry (Faculty of Science, University of Yaounde I). Animals were fed with standard feed and drinking water ad libitum.
(§3) Rats were divided into 5 groups of 4 rats each. A unique dose of 32.5 mg/kg BW of aluminum trichloride (AlCl3) was administered by intra peritoneal (i.p) route. 24 hours later, different doses of plant extract and vitamin E (reference) were administered by oral route, using a gastro-oesophagian probe once a day for 3 days.
24 hours after the last administration, animals were sacrificed under mild anesthesia in Ether vapor following a 12 hours fasting. The rats' bloods were collected in EDTA tubes. Cervical dislocations were performed immediately after blood collections, to remove the brains which were then rinsed in physiologic solution (0.9% NaCl) and weighed. Plasmas were extracted from the bloods collected and the brains were used to prepare 10% homogenates which served for biochemical analysis.
The blood in EDTA tubes were allowed to stand at room temperature, then centrifuged for 10 minutes at 900 revs/minute, the resulting liquid phase (plasma) was then collected into Eppendorf tubes and stored at −20° C.
1.3.3.3.1. Evaluation of the Activities of the Oxaloglutamate (GOT) and Glutamo-Pyruvate (GPT) Transaminases (Reitman et Franckel, 1957) (Hepatic Toxicity) […]
PROTOCOL: EVALUATION DE L′ACTIVITÉ DE L′ASAT (GOT): 100 μL of substrate solution (annex 3e) were put into tubes, pre-incubated at 37° C. for 5 minutes then 0.02 mL of plasma was added. […] Optical densities were read at 505 nm against a blank (made up of 100 μL of substrate solution and 0.02 mL of NaCl 0.9%) titrated under similar conditions. […]

The test system is the same in data set [2]. The data set is described as follows: Aluminum chloride treated rats: plasma creatinine, renal toxicity. How it is done:
as §1, §2, §3
24 hours after the last administration, animals were sacrificed under mild anesthesia in Ether vapor following a 12 hours fasting. […]
PROTOCOL: 1 mL of working solution (annex 3f) was placed into test tubes and 0.1 mL of plasma and caliber added respectively to assay and blank tubes. Tubes were agitated and their optical densities read 520 nm against a blank; within the 20 seconds that followed the stabilization of the mixture. […] The concentration of creatinine was determined from the following equation: […]

The test system is the same in data set [3]. The data set is described as follows: Aluminum chloride induced neurotoxicity in rats: catalase activity in brain. How it is done: as §1, §2
Rats were divided into 5 groups of 4 rats each. A unique dose of 32.5 mg/kg BW of aluminum trichloride (AlCl3) was administered by intra peritoneal (i.p) route. […]
(§4) PROTOCOL: The assay tubes contained 100 μL of homogenate or plasma or ovalbumin (caliber) and 3 mL of Biuret's reagent (annex 3c). […] The optical densities were read at 540 nm against a blank which contained 3 mL of reagent solution and 100 μL of NaCl 0.9% incubated under similar conditions. The total protein concentration was determined from the following equation: […]
PRINCIPLE: This method is based on the fact that the catalase present in hemolysates or homogenates reduces hydrogen peroxide (H2O2) to water (H2O) and oxygen (O2). […] Catalase activity is proportional to the optical density and is determined by use of a calibration curve. […]

Data set [4] has the same test system. The data set is described as follows: Aluminum chloride induced neurotoxicity in rats: thiol proteins in brain. As to conditions: brain of rats; AlCl3 32.5 mg/kg i.p.; Vit E 100 mg/kg BW/day (VE100). The method, then: as §1, §2
Rats were divided into 5 groups of 4 rats each. […]
as §4
PROTOCOL: 100 μL of homogenate and 900 μL of Ellman's reagent (annex 3d) were added into the assay tubes, homogenized and incubated at room temperature for 30 minutes before reading the optical densities at 412 nm against a blank which contained 900 μL the reagent solution and 100 μL of NaCl 0.9% incubated under similar conditions as the assay. […] Results were expressed as μmol/g of total proteins.

Setting [5] is: HEEBT 150 and 300 mg/kg BW, vitamin E.
Setting [6] is: plasma, AlCl3 32.5 mg/kg i.p., Vit E 100 mg/kg BW/day (VE100).

For Vitamin E, the “effect on activities of plasma transaminases after aluminum” value in data set [1] (setting [5]) is recorded as “tend to normalize”. In data set [1] (setting [6]), this substance showed an ALAT of 60.135 ± 7.453 unité d'ALAT/mL and an ASAT of 76.363 ± 1.868 unité d'ASAT/mL. Moreover, in data set [2] (setting [5]), the “effect on plasma creatinine after aluminum” value is “tend to normalize”. Moreover, the Créatinine in data set [2] (setting [6]) came out at 2.297 ± 0.181 mg/dL. For the same substance, the “effect on catalase activity compared with the PC group” value in data set [3] (HEEBT 150 and 300 mg/kg BW, vitamin E, p<0.05) is “significantly (p<0.05) restore”. In data set [3] (brain of rats, AlCl3 32.5 mg/kg i.p., Vit E 100 mg/kg BW/day (VE100)), the Catalase is 0.030 ± 0.003 mM H2O2/min/mg of proteins. Moreover, the Thiols proteins in data set [4] is recorded as 0.299 ± 0.071 μg/mg of proteins.
